In article PMC10337138 (Acta Neuropathologica Communications, 2023):

What was measured:
Details in all cases: 1 mM ATP; inhibitor
EIF2AK2/PKR = EIF2AK2/PKR (Homo sapiens, UniProt P19525)
Procedure: (§1) Kinase selectivity panel Kinome profiling was conducted by AssayQuant Technologies (Marlboro, MA) using Sox chromophore technology and Sox-based peptide substrates developed for human kinases in a 384-well format. Compounds were tested at 1 µM in the presence of 1 mM ATP.

MAPK10/JNK3 = MAPK10/JNK3 (Homo sapiens, UniProt P53779)
Procedure: as §1

PRKACB = PRKACB (Homo sapiens, UniProt P22694)
Procedure: as §1

EPHA7 = EPHA7 (Homo sapiens, UniProt Q15375)
Procedure: as §1

RPS6KB2/P70S6KB = RPS6KB2/P70S6KB (Homo sapiens, UniProt Q9UBS0)
Procedure: as §1

HIPK2 = HIPK2 (Homo sapiens, UniProt Q9H2X6)
Procedure: as §1

CDK6/D3 = CDK6/D3 (Homo sapiens, UniProt Q00534)
Procedure: as §1

ROS = target: T1, ROS (Homo sapiens, UniProt P08922)
T1 construct: gene ROS1
Procedure: as §1

FLT3 = FLT3 (Homo sapiens, UniProt P36888)
Procedure: as §1

CDK9/K = CDK9/K (Homo sapiens, UniProt P50750)
Procedure: as §1

NEK7 = NEK7 (Homo sapiens, UniProt Q8TDX7)
Procedure: as §1

FER = FER (Homo sapiens, UniProt P16591)
Procedure: as §1

MELK = MELK (Homo sapiens, UniProt Q14680)
Sequence of MELK (Q14680 whole entry): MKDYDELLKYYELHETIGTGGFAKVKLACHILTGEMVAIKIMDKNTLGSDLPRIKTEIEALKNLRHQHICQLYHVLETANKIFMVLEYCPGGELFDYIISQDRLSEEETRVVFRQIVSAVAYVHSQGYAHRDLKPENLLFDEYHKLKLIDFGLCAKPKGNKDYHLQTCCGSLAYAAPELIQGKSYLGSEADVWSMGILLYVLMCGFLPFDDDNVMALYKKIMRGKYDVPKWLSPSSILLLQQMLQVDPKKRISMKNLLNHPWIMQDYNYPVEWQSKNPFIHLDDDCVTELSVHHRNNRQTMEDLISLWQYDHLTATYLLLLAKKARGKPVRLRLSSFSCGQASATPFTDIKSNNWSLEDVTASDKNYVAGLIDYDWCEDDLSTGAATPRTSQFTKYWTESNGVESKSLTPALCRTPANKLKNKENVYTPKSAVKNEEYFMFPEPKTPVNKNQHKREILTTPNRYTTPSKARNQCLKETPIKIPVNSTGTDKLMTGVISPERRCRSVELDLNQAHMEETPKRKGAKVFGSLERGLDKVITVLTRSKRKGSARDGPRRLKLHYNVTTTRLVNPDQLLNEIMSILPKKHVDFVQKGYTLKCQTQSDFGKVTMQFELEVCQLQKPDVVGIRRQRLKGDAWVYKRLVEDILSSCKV
Procedure: as §1

AAK1 = AAK1 (Homo sapiens, UniProt Q2M2I8)
Procedure: as §1

CTK = target: T2, CTK (Homo sapiens, UniProt P42679)
T2 construct: gene MATK
Procedure: as §1

CDK17 = CDK17 (Homo sapiens, UniProt Q00537)
Procedure: as §1

PRKD1 = PRKD1 (Homo sapiens, UniProt Q15139)
Procedure: as §1

MARK4 = MARK4 (Homo sapiens, UniProt Q96L34)
Procedure: as §1

PRKAA2/AMPK221 = PRKAA2/AMPK221 (Homo sapiens, UniProt P54646)
Sequence of PRKAA2/AMPK221 (P54646 whole entry): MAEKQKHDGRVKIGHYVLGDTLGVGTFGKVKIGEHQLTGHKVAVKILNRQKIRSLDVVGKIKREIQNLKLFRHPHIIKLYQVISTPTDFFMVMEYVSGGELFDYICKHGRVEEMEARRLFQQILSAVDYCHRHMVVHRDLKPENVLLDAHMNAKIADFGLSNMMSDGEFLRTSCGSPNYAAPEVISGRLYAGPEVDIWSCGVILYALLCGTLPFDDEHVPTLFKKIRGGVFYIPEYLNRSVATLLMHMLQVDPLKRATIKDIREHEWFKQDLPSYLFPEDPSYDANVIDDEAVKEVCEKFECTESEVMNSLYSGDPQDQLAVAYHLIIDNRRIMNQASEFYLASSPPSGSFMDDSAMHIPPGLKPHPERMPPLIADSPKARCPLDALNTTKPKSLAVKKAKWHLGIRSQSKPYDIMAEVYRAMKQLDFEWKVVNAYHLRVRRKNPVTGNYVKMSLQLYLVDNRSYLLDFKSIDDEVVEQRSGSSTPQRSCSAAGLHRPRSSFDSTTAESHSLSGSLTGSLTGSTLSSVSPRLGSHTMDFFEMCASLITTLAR
Sequence of PRKAA2/AMPK221 (O43741 whole entry partner): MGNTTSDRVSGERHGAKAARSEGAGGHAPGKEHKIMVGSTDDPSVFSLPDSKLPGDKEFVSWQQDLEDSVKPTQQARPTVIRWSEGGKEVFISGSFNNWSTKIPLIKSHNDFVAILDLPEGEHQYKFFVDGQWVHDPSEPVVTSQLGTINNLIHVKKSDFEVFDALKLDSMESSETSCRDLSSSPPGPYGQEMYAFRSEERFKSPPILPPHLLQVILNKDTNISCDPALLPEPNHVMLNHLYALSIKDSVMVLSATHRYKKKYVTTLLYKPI
Sequence of PRKAA2/AMPK221 (P54619 whole entry partner): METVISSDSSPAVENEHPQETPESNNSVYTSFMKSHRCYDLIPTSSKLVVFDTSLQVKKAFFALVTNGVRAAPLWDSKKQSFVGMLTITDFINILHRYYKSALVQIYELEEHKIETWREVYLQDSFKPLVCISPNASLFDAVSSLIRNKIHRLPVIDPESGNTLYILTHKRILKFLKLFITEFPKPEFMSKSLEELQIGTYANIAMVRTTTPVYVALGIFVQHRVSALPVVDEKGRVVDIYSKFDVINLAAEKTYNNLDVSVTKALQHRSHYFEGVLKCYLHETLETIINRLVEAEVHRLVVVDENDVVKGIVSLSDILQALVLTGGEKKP
Procedure: as §1

FGFR4 = FGFR4 (Homo sapiens, UniProt P22455)
Sequence of FGFR4 (P22455 whole entry): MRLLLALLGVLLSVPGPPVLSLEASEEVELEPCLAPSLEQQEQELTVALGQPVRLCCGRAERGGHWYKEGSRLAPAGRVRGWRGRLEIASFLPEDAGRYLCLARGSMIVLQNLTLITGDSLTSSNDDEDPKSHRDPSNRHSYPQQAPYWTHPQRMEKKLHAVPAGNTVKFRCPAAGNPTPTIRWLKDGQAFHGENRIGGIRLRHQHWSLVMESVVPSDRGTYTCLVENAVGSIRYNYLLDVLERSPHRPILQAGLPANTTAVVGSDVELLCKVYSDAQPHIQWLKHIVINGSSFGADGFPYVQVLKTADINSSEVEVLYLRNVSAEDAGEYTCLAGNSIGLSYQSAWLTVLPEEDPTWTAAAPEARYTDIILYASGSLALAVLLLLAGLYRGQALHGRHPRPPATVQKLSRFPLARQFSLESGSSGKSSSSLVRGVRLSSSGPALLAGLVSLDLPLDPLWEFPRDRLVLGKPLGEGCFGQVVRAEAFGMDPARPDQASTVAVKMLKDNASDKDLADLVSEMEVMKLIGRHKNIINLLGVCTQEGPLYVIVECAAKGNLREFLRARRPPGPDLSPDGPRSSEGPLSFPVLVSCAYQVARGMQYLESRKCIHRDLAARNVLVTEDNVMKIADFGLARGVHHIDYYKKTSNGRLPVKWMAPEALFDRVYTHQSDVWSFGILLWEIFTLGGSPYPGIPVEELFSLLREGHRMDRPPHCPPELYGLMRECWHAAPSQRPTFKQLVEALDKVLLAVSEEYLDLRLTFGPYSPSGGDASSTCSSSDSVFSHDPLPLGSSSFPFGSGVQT
Procedure: as §1

GRK5 = GRK5 (Homo sapiens, UniProt P34947)
Procedure: as §1

CDK5/P25 = CDK5/P25 (Homo sapiens, UniProt Q00535)
Procedure: as §1

MST1R/RON = MST1R/RON (Homo sapiens, UniProt Q04912)
Procedure: as §1

HIPK4 = HIPK4 (Homo sapiens, UniProt Q8NE63)
Sequence of HIPK4 (Q8NE63 whole entry): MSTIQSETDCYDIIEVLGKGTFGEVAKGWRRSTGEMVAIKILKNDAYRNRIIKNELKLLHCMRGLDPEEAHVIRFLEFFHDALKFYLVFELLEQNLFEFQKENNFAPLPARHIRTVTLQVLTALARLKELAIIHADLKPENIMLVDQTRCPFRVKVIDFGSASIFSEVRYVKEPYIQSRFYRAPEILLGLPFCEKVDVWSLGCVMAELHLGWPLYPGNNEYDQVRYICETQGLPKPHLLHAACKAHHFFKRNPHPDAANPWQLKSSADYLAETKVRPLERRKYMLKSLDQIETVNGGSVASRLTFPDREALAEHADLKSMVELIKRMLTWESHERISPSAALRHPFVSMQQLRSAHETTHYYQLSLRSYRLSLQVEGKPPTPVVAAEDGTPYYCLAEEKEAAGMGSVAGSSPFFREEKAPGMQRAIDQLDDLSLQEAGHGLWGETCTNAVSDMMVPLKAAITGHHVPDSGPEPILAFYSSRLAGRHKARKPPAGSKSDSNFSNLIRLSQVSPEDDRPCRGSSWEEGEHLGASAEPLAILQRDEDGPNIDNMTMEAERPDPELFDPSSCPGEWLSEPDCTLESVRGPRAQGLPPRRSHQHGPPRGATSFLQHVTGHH
Procedure: as §1

CDK1/B1 = CDK1/B1 (Homo sapiens, UniProt P06493)
Procedure: as §1

PRKCG/PKCG = PRKCG/PKCG (Homo sapiens, UniProt P05129)
Procedure: as §1

NEK1 = NEK1 (Homo sapiens, UniProt Q96PY6)
Procedure: as §1

CRIK/CIT = CRIK/CIT (Homo sapiens, UniProt O14578)
Procedure: as §1

TNK2/ACK = TNK2/ACK (Homo sapiens, UniProt Q07912)
Procedure: as §1

SRPK3/MSSK1 = SRPK3/MSSK1 (Homo sapiens, UniProt Q9UPE1)
Sequence of SRPK3/MSSK1 (Q9UPE1 whole entry): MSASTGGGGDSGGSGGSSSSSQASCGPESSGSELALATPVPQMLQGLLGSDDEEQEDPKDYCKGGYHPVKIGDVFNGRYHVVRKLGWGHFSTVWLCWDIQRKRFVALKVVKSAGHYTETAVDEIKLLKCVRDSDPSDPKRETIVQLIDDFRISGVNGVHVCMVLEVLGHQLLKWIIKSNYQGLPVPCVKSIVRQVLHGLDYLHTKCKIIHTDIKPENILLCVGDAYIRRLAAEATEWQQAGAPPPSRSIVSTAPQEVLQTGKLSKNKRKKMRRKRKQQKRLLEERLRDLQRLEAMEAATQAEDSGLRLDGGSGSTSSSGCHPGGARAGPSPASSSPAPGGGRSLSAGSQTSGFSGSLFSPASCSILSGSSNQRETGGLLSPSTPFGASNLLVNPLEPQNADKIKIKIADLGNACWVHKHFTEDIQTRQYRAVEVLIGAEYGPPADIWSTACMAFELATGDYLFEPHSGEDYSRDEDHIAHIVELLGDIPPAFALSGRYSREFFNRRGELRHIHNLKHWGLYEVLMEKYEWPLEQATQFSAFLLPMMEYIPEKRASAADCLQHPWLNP
Procedure: as §1

CDC42BPG/DMPK2 = CDC42BPG/DMPK2 (Homo sapiens, UniProt Q6DT37)
Procedure: as §1

CSF1R/FMS = CSF1R/FMS (Homo sapiens, UniProt P07333)
Procedure: as §1

PKN2 = PKN2 (Homo sapiens, UniProt Q16513)
Procedure: as §1

CSNK2A1/CK2A1 = CSNK2A1/CK2A1 (Homo sapiens, UniProt P68400)
Sequence of CSNK2A1/CK2A1 (P68400 whole entry): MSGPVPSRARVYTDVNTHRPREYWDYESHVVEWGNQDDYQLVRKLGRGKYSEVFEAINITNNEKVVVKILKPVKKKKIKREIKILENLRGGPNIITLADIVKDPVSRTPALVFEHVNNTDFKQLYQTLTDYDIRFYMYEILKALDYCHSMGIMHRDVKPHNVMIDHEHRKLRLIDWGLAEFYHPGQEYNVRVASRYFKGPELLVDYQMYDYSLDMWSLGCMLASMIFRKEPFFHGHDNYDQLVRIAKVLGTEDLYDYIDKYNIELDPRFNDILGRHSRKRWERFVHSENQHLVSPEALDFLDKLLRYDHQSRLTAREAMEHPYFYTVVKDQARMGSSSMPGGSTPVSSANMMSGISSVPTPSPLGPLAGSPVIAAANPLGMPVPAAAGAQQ
Procedure: as §1

YES = target: T3, YES (Homo sapiens, UniProt P07947)
T3 construct: gene YES1
T3 sequence (P07947 whole entry): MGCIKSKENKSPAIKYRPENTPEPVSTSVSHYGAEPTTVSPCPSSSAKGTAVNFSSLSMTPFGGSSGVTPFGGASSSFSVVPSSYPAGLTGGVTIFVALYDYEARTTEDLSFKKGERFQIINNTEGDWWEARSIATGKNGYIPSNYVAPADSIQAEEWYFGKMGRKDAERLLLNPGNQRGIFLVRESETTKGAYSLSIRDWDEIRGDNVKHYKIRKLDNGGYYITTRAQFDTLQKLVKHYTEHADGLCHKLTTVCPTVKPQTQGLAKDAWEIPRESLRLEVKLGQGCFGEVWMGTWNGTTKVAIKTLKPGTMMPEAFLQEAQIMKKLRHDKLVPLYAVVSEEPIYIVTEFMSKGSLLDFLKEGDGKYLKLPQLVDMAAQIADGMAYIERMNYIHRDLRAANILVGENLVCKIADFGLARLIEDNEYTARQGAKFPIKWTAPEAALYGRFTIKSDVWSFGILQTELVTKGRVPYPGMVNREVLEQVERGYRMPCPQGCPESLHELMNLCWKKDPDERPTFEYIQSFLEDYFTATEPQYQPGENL
Procedure: as §1

NEK5 = NEK5 (Homo sapiens, UniProt Q6P3R8)
Procedure: as §1

GAK = GAK (Homo sapiens, UniProt O14976)
Procedure: as §1

ITK = ITK (Homo sapiens, UniProt Q08881)
Procedure: as §1

PAK3 = PAK3 (Homo sapiens, UniProt O75914)
Procedure: as §1

SMILES: C=CC(=O)N1CCC[C@@H](n2nc(-c3ccc(Oc4ccccc4)cc3)c3c(N)ncnc32)C1 [Ibrutinib]
- 1 µM GBD00276 (ibrutinib), % inhibition (EIF2AK2/PKR): 0.3752%
- 1 µM GBD00276 (ibrutinib), % inhibition (MAPK10/JNK3): -5.63%
- 1 µM GBD00276 (ibrutinib), % inhibition (PRKACB): -25.42%
- 1 µM GBD00276 (ibrutinib), % inhibition (EPHA7): -0.6285%
- 1 µM GBD00276 (ibrutinib), % inhibition (RPS6KB2/P70S6KB): -2.111%
- 1 µM GBD00276 (ibrutinib), % inhibition (HIPK2): 1.01%
- 1 µM GBD00276 (ibrutinib), % inhibition (CDK6/D3): 7.258%
- 1 µM GBD00276 (ibrutinib), % inhibition (ROS): 2.485%
- 1 µM GBD00276 (ibrutinib), % inhibition (FLT3): 20.23%
- 1 µM GBD00276 (ibrutinib), % inhibition (CDK9/K): -8.235%
- 1 µM GBD00276 (ibrutinib), % inhibition (NEK7): -0.8851%
- 1 µM GBD00276 (ibrutinib), % inhibition (FER): 6.712%
- 1 µM GBD00276 (ibrutinib), % inhibition (MELK): -0.3303%
- 1 µM GBD00276 (ibrutinib), % inhibition (AAK1): 6.339%
- 1 µM GBD00276 (ibrutinib), % inhibition (CTK): -75.13%
- 1 µM GBD00276 (ibrutinib), % inhibition (CDK17): 5.795%
- 1 µM GBD00276 (ibrutinib), % inhibition (PRKD1): -11.81%
- 1 µM GBD00276 (ibrutinib), % inhibition (MARK4): -1.923%
- 1 µM GBD00276 (ibrutinib), % inhibition (PRKAA2/AMPK221): 4.802%
- 1 µM GBD00276 (ibrutinib), % inhibition (FGFR4): 19.57%
- 1 µM GBD00276 (ibrutinib), % inhibition (GRK5): -10.93%
- 1 µM GBD00276 (ibrutinib), % inhibition (CDK5/P25): 18.4%
- 1 µM GBD00276 (ibrutinib), % inhibition (MST1R/RON): 1.112%
- 1 µM GBD00276 (ibrutinib), % inhibition (HIPK4): 3.287%
- 1 µM GBD00276 (ibrutinib), % inhibition (CDK1/B1): -7.635%
- 1 µM GBD00276 (ibrutinib), % inhibition (PRKCG/PKCG): -20.25%
- 1 µM GBD00276 (ibrutinib), % inhibition (NEK1): -6.252%
- 1 µM GBD00276 (ibrutinib), % inhibition (CRIK/CIT): -0.4372%
- 1 µM GBD00276 (ibrutinib), % inhibition (TNK2/ACK): 31.95%
- 1 µM GBD00276 (ibrutinib), % inhibition (SRPK3/MSSK1): 1.885%
- 1 µM GBD00276 (ibrutinib), % inhibition (CDC42BPG/DMPK2): -2.51%
- 1 µM GBD00276 (ibrutinib), % inhibition (CSF1R/FMS): 9.642%
- 1 µM GBD00276 (ibrutinib), % inhibition (PKN2): 2.374%
- 1 µM GBD00276 (ibrutinib), % inhibition (CSNK2A1/CK2A1): 11.48%
- 1 µM GBD00276 (ibrutinib), % inhibition (YES): 45.59%
- 1 µM GBD00276 (ibrutinib), % inhibition (NEK5): 12.71%
- 1 µM GBD00276 (ibrutinib), % inhibition (GAK): -7.706%
- 1 µM GBD00276 (ibrutinib), % inhibition (ITK): 38.79%
- 1 µM GBD00276 (ibrutinib), % inhibition (PAK3): 14.04%
